Source: patent publication US9833497B2, “Human originated EGF domain proteins and use of the same” (CHENGDU SOURCEBIO LIMITED-LIABILITY COMPANY, priority 2013, dated 2017)

Assays:
Type in all cases: cell-based
Aeromonas hydrophila = test: MIC against Gram-negative bacteria: Aeromonas hydrophila; conditions: 5×10^5 CFU/mL
Summary of the method: (§1)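 Bacteria grown in LB at 37° C with shaking to McFarland 0.5, pelleted and resuspended in fresh LB, then seeded at 5×10^5 CFU/mL per well. Purified recombinant human EGF domain proteins were two-fold serially diluted in triplicate and plates shaken at 37° C, 175 rpm. MIC is the lowest protein concentration with no bacterial growth.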

Serratia marcescens = test: MIC against Gram-negative bacteria: Serratia marcescens; conditions: 5×10^5 CFU/mL
Summary of the method: as §1

E. coli DH5α = test: Antibacterial activity: MIC and growth curve against E. coli DH5α in 96-well plate; conditions: minimal inhibitory concentration against E. coli DH5α; 96-well plate, 5×10^5 CFU/mL, 37° C., judged after 8 h
Summary of the method: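 Log-phase DH5α (OD600 about 0.5, 37° C, 185 rpm in LB) was pelleted, resuspended in fresh LB and seeded at 5×10^5 CFU/mL with recombinant protein at 50, 25 and 12.5 μg/mL (two-fold series), in triplicate. Plates were shaken at 175 rpm, 37° C, and OD600 was read every 30 min. MIC was the lowest concentration with no growth.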

Proteus vulgaris = test: MIC against Gram-negative bacteria: Proteus vulgaris; conditions: 5×10^5 CFU/mL
Summary of the method: as §1

Pseudomonas aeruginosa = test: MIC against Gram-negative bacteria: Pseudomonas aeruginosa; conditions: 5×10^5 CFU/mL
Summary of the method: as §1

Enterobacter cloacae = test: MIC against Gram-negative bacteria: Enterobacter cloacae; conditions: 5×10^5 CFU/mL
Summary of the method: as §1

Proteus mirabilis = test: MIC against Gram-negative bacteria: Proteus mirabilis; conditions: 5×10^5 CFU/mL
Summary of the method: as §1

Citrobacter diversus = test: MIC against Gram-negative bacteria: Citrobacter diversus; conditions: 5×10^5 CFU/mL
Summary of the method: as §1

Moraxella catarrhalis = test: MIC against Gram-negative bacteria: Moraxella catarrhalis; conditions: 5×10^5 CFU/mL
Summary of the method: as §1

Klebsiella pneumonia = test: MIC against Gram-negative bacteria: Klebsiella pneumonia; conditions: 5×10^5 CFU/mL
Summary of the method: as §1

E. coli BL21 = test: MIC against Gram-negative bacteria: E. coli BL21; conditions: 5×10^5 CFU/mL
Summary of the method: as §1

[1] = A. hydrophila, 10 h cultivation at 37° C.
[2] = S. marcescens, 10 h cultivation at 37° C.
[3] = P. vulgaris, 10 h cultivation at 37° C.
[4] = P. aeruginosa, 10 h cultivation at 37° C.
[5] = E. cloacae, 10 h cultivation at 37° C.
[6] = P. mirabilis, 10 h cultivation at 37° C.
[7] = C. diversus, 10 h cultivation at 37° C.
[8] = M. catarrhalis, 10 h cultivation at 37° C.
[9] = K. pneumonia, 10 h cultivation at 37° C.
[10] = E. coli BL21, 10 h cultivation at 37° C.

Row | Substance | MIC (E. coli DH5α) | MIC A. hydrophila (Aeromonas hydrophila; 96-well plate, 37° C., 10 h) | MIC S. marcescens (Serratia marcescens; 96-well plate, 37° C., 10 h) | MIC P. vulgaris (Proteus vulgaris; 96-well plate, 37° C., 10 h) | MIC P. aeruginosa (Pseudomonas aeruginosa; 96-well plate, 37° C., 10 h) | MIC E. cloacae (Enterobacter cloacae; 96-well plate, 37° C., 10 h) | MIC P. mirabilis (Proteus mirabilis; 96-well plate, 37° C., 10 h) | MIC C. diversus (Citrobacter diversus; 96-well plate, 37° C., 10 h) | MIC M. catarrhalis (Moraxella catarrhalis; 96-well plate, 37° C., 10 h) | MIC K. pneumonia (Klebsiella pneumonia; 96-well plate, 37° C., 10 h) | MIC E. coli BL21 (E. coli BL21; 96-well plate, 37° C., 10 h) | also measured
1 | PRT836 (FGHDCSLTCDDCRNGGTCLLGLDGCDCPEGWTGLICN; listed as Homo sapiens) | 50 µg/mL | – | – | – | – | – | – | – | – | – | – | MIC (μg/mL) A. hydrophila (Aeromonas hydrophila; [1]): 12.5 µg/mL; MIC (μg/mL) S. marcescens (Serratia marcescens; [2]): 12.5 µg/mL; MIC (μg/mL) P. vulgaris (Proteus vulgaris; [3]): 25 µg/mL; MIC (μg/mL) P. aeruginosa (Pseudomonas aeruginosa; [4]): 50 µg/mL; MIC (μg/mL) E. cloacae (Enterobacter cloacae; [5]): 50 µg/mL; MIC (μg/mL) P. mirabilis (Proteus mirabilis; [6]): 25 µg/mL; MIC (μg/mL) C. diversus (Citrobacter diversus; [7]): 25 µg/mL; MIC (μg/mL) M. catarrhalis (Moraxella catarrhalis; [8]): 12.5 µg/mL; MIC (μg/mL) K. pneumonia (Klebsiella pneumonia; [9]): 12.5 µg/mL; MIC (μg/mL) E. coli BL21 (E. coli BL21; [10]): 12.5 µg/mL
2 | PRT729 (GSNACNQPTHPNGDCSHFCFPVPNFQRVCGCPYGMRLASNHLTCE; listed as Homo sapiens) | 12.5 µg/mL | 25 µg/mL | 50 µg/mL | 25 µg/mL | 12.5 µg/mL | 12.5 µg/mL | 12.5 µg/mL | 12.5 µg/mL | 25 µg/mL | 25 µg/mL | 25 µg/mL | –
3 | PRT438 (DIDECALGRHTCHAGQDCDNTIGSYRCVVRCGSGFRRTSDGLSCQ; listed as Homo sapiens) | 25 µg/mL | – | – | – | – | – | – | – | – | – | – | MIC (Aeromonas hydrophila; [1]): 12.5 µg/mL; MIC (Serratia marcescens; [2]): 50 µg/mL; MIC (Proteus vulgaris; [3]): 12.5 µg/mL; MIC (Pseudomonas aeruginosa; [4]): 50 µg/mL; MIC (Enterobacter cloacae; [5]): 50 µg/mL; MIC (Proteus mirabilis; [6]): 50 µg/mL; MIC (Citrobacter diversus; [7]): 50 µg/mL; MIC (Moraxella catarrhalis; [8]): 12.5 µg/mL; MIC (Klebsiella pneumonia; [9]): 12.5 µg/mL; MIC (E. coli BL21; [10]): 12.5 µg/mL
4 | PRT738 (FHTRCEEDNGGCSHLCLLSPSEPFYTCACPTGVQLQDNGRTCK; listed as Homo sapiens) | 50 µg/mL | 50 µg/mL | 25 µg/mL | 25 µg/mL | 25 µg/mL | 12.5 µg/mL | 50 µg/mL | 12.5 µg/mL | 25 µg/mL | 50 µg/mL | 12.5 µg/mL | –
5 | PRT730 (NGNSCSDFNGGCTHECVQEPFGAKCLCPLGFLLANDSKTCE; listed as Homo sapiens) | 25 µg/mL | 25 µg/mL | 25 µg/mL | 12.5 µg/mL | 25 µg/mL | 50 µg/mL | 50 µg/mL | 12.5 µg/mL | 25 µg/mL | 25 µg/mL | 12.5 µg/mL | –
6 | PRT97 (DSRGCARWCPQNSSCVNATACRCNPGFSSFSEIITTPTETCD; listed as Homo sapiens) | 25 µg/mL | – | – | – | – | – | – | – | – | – | – | MIC (μg/mL) A. hydrophila (Aeromonas hydrophila; Aeromonas hydrophila, 96-well plate, 37° C., 10 h): 12.5 µg/mL; MIC (μg/mL) S. marcescens (Serratia marcescens; Serratia marcescens, 96-well plate, 37° C., 10 h): 50 µg/mL; MIC (μg/mL) P. vulgaris (Proteus vulgaris; Proteus vulgaris, 96-well plate, 37° C., 10 h): 12.5 µg/mL; MIC (μg/mL) P. aeruginosa (Pseudomonas aeruginosa; Pseudomonas aeruginosa, 96-well plate, 37° C., 10 h): 25 µg/mL; MIC (μg/mL) E. cloacae (Enterobacter cloacae; Enterobacter cloacae, 96-well plate, 37° C., 10 h): 12.5 µg/mL; MIC (μg/mL) P. mirabilis (Proteus mirabilis; Proteus mirabilis, 96-well plate, 37° C., 10 h): 50 µg/mL; MIC (μg/mL) C. diversus (Citrobacter diversus; Citrobacter diversus, 96-well plate, 37° C., 10 h): 50 µg/mL; MIC (μg/mL) M. catarrhalis (Moraxella catarrhalis; Moraxella catarrhalis, 96-well plate, 37° C., 10 h): 100 µg/mL; MIC (μg/mL) K. pneumonia (Klebsiella pneumonia; Klebsiella pneumonia, 96-well plate, 37° C., 10 h): 12.5 µg/mL; MIC (μg/mL) E. coli BL21 (E. coli BL21; E. coli BL21, 96-well plate, 37° C., 10 h): 12.5 µg/mL
7 | PRT629 (CPCPGQSACTTIPESREVVCTHCPPGQRGRRCEVCDDGFFGDPLGLFGHPQPCHQ; listed as Homo sapiens) | 12.5 µg/mL | 12.5 µg/mL | 12.5 µg/mL | 50 µg/mL | 12.5 µg/mL | 12.5 µg/mL | 12.5 µg/mL | 12.5 µg/mL | 12.5 µg/mL | 25 µg/mL | 25 µg/mL | –
